This note sets out measurements from US7019144B2, “1,2,4-Triazole derivative, method for preparing the same, and pharmaceutical composition containing the same” (CJ Corp., priority 2002, dated 2006).

Assay [1] deals with carrageenan-induced paw edema. Put plainly: Carrageenan-induced paw edema test in rats. Type of assay: in vivo. Conditions: oral administration, foot swelling 3 hours after carrageenan injection vs control. The protocol: 2. Carrageenan-induced Paw Edema Test in Rats
The day before the test date, rats were selected in each group so that the average body weight was as close as possible, and the rats were fasted by feed withdrawal prior to the test. At the test date, the rats were orally administered with the test compounds and a control material. After 1 hour, the volume (V0h) of a predetermined portion of the left hind foot of the rats was measured with a plethysmometer. 100 μl of 1% carrageenan solution was subcutaneously injected to the left hind foot of the rats using a syringe with 1 ml capacity. Three hours after the injection of the carrageenan, the volume (V3h) of the predetermined portion of the foot was again measured. The foot swelling variation […] in a group of test compound-treated rats was compared with that of a group of control material-treated rats. With the supposition of 0% inhibition by the control (control material-treated rats), the inhibition percentage of edema of each test compound was determined.

A further assay deals with T1, COX-1 (Homo sapiens, UniProt P23219).
T1 construct: host or cells: U-937 human lymphoma cells
Put plainly: Assay for the COX-1 inhibitory activity using U-937 (PGE2 inhibition). Type of assay: cell-based. Conditions: for inhibition at 1 µM: 1 μM test compound, U-937 human lymphoma cells, PGE2 inhibition vs DMSO, read-out: Cyclooxygenase (COX) Inhibition (%) COX-1 (1 μM); for COX-1 inhibitory activity in comparison with the reference (Valdecoxib): 1 μM, U-937, comparison in words. The protocol: The collected cells were diluted with HBSS (×1, Hank's balanced salt solution) to a concentration of 1×10^6 cells/ml. 1 ml of the dilute cell solution was placed into each well of 12-well plates. 5 μl of 1 μM solution of a test compound in DMSO and 5 μl of DMSO as a control were added to the wells. The wells were incubated in CO2 incubator at 37° C. for 15 minutes. Separately, 10 mM stock solution of arachidonic acid in ethanol was diluted ten times in ethanol to prepare 1 mM solution of arachidonic acid. Arachidonic acid acts as a substrate. 10 μl of the 1 mM solution of arachidonic acid was added to each well and incubated at CO2 incubator at 37° C. for 30 minutes. The cell solution of each well was placed in a centrifuge test tube and centrifuged at 10,000 rpm at 4° C. for 5 minutes. The concentration of PGE2 in the collected cells and the supernatant was quantified by means of a monoclonal kit (Cayman Chemicals). The percentages of PGE2 inhibition in a group of the test compound-treated cells in relation to a group of the DMSO-treated cells were calculated. Based on the calculated values, the COX-1 inhibitory activities were evaluated.
(§1) The percentages of the COX inhibition were calculated according to the following equation: % Inhibition=(concentration of PGE2 in test compound-untreated sample−concentration of PGE2 in test compound-treated sample)/(concentration of PGE2 in test compound-untreated sample)×100

The next assay deals with T2, COX-2 (Mus musculus, UniProt Q05769).
T2 construct: host or cells: RAW 264.7 cells, aspirin-pretreated, then induced with interferon gamma and LPS
T2 sequence (Q05769 18-604): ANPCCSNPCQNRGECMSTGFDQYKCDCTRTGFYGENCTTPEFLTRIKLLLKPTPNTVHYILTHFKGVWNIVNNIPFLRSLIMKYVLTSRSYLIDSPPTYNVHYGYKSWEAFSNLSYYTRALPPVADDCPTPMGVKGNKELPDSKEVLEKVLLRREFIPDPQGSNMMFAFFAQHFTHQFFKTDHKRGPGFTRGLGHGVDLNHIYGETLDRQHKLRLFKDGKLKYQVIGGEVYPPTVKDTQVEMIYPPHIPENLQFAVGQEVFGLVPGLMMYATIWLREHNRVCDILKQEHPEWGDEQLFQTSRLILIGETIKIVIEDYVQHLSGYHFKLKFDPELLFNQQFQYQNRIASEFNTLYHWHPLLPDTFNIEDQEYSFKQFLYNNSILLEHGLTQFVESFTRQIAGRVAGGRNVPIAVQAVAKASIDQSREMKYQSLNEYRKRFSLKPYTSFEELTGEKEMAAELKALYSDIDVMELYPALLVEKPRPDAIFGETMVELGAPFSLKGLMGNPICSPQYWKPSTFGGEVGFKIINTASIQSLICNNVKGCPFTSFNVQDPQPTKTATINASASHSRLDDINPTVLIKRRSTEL
Put plainly: Assay for the COX-2 inhibitory activity using RAW 264.7 cell line (PGE2, interferon γ/LPS induced). The format is cell-based. Conditions: for inhibition at 0.01 µM: RAW264.7, 10 nM test compound, RAW 264.7 cells, interferon γ + LPS, 18 hours, PGE2, read-out: Cyclooxygenase (COX) Inhibition (%) COX-2 (10 nM); for COX-2 inhibitory activity in comparison with the reference (Valdecoxib): 10 nM, RAW 264.7, comparison in words; for selectivity (COX-2 over COX-1): judged from Table 1, in words. The protocol:
Each well was treated with 250 μM of aspirin and incubated at 37° C. for 2 hours. […] Then, each well was treated with interferon γ (100 units/ml) and Iipopolysaccharide (LPS, 100 ng/ml) and incubated for 18 hours. The culture media were transferred to another test tubes. The concentration of PGE2 was quantified by means of the EIA kit (Cayman Chemicals).
as §1

T1 sequence (P23219 24-599): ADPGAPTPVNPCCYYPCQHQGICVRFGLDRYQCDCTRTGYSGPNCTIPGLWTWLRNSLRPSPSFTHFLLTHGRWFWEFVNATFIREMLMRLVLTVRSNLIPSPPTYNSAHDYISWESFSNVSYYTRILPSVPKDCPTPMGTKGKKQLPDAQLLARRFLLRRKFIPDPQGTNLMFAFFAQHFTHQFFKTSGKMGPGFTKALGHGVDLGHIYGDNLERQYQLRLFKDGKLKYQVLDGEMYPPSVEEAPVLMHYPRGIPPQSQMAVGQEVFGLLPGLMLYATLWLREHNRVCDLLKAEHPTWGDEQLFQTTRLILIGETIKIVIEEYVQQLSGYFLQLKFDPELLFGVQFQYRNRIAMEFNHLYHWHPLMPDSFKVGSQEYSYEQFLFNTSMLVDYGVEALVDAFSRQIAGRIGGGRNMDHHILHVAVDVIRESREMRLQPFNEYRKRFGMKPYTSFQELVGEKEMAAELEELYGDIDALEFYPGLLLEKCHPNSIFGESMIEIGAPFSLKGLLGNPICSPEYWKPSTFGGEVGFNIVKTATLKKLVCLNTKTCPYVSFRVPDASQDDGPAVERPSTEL

On to `Cc1ccc(-c2cc(C(F)(F)F)nn2-c2ccc(S(N)(=O)=O)cc2)cc1` [Celecoxib, reference compound], for which the “Inhibitory effect (% inhibition)” value in assay [1] came out at 23.9 % inhibition.

Take `CS(=O)(=O)c1ccc(-n2nc(C(F)(F)F)nc2-c2ccccc2)cc1` [Example 25, 1-(4-methanesulfonylphenyl)-5-phenyl-3-trifluoromethyl-1H-[1,2,4]triazole]: the inhibition at 1 µM on COX-1 was determined as 29.2%. The inhibition at 0.01 µM on COX-2 is 7.62%.

Take `CS(=O)(=O)c1ccc(-n2nc(C(F)(F)F)nc2-c2ccc(Cl)cc2)cc1` [Example 26, 5-(4-chlorophenyl)-1-(4-methanesulfonylphenyl)-3-trifluoromethyl-1H-[1,2,4]triazole]: the inhibition at 1 µM on COX-1 worked out at 38.8%. Besides, at COX-2, the inhibition at 0.01 µM is 10.5%.

Turning to `CS(=O)(=O)c1ccc(-n2nc(C(F)(F)F)nc2-c2ccc(Br)cc2)cc1` [Example 27, 5-(4-bromophenyl)-1-(4-methanesulfonylphenyl)-3-trifluoromethyl-1H-[1,2,4]triazole], the “Inhibitory effect (% inhibition)” value in assay [1] came out at 21.7 % inhibition. In addition, at COX-1, the inhibition at 1 µM turned out to be 13.8%. The inhibition at 0.01 µM on COX-2 is 16%.

Turning to `CS(=O)(=O)c1ccc(-n2nc(C(F)(F)F)nc2-c2cccc(Br)c2)cc1` [Example 29, 5-(3-bromophenyl)-1-(4-methanesulfonylphenyl)-3-trifluoromethyl-1H-[1,2,4]triazole], the inhibition at 1 µM on COX-1 is 16.7%. On COX-2, the inhibition at 0.01 µM stood at 6.23%.

As for `CS(=O)(=O)c1ccc(-n2nc(C(F)(F)F)nc2-c2cccc(Cl)c2)cc1` [Example 30, 5-(3-chlorophenyl)-1-(4-methanesulfonylphenyl)-3-trifluoromethyl-1H-[1,2,4]triazole], on COX-1, the inhibition at 1 µM was 18.6%. Moreover, the inhibition at 0.01 µM on COX-2 stood at 7.32%.

For `CS(=O)(=O)c1ccc(-n2nc(C(F)(F)F)nc2-c2cccc(C(F)(F)F)c2)cc1` [Example 31, 5-(3-trifluoromethylphenyl)-1-(4-methanesulfonylphenyl)-3-trifluoromethyl-1H-[1,2,4]triazole], on COX-1, the inhibition at 1 µM came to 16.5%. Also, the inhibition at 0.01 µM on COX-2 amounted to 5.66%.

Turning to `COc1ccc(-c2nc(C(F)(F)F)nn2-c2ccc(S(C)(=O)=O)cc2)c(OC)c1` [Example 32, 5-(2,4-dimethoxyphenyl)-1-(4-methanesulfonylphenyl)-3-trifluoromethyl-1H-[1,2,4]triazole], the inhibition at 1 µM at COX-1 came out at 19.9%. In addition, the inhibition at 0.01 µM on COX-2 was 12.6%.

With `CS(=O)(=O)c1ccc(-n2nc(C(F)(F)F)nc2/C=C/c2ccccc2)cc1` [Example 33, 5-styryl-1-(4-methanesulfonylphenyl)-3-trifluoromethyl-1H-[1,2,4]triazole], the inhibition at 1 µM on COX-1 was found to be 19.2%. On COX-2, the inhibition at 0.01 µM was 19.2%.

On to `CC(C)(C)c1ccc(-c2nc(C(F)(F)F)nn2-c2ccc(S(C)(=O)=O)cc2)cc1` [Example 36, 5-(4-t-butylphenyl)-1-(4-methanesulfonylphenyl)-3-trifluoromethyl-1H-[1,2,4]triazole], for which the inhibition at 1 µM at COX-1 came to 21.6%. For the same compound, the inhibition at 0.01 µM at COX-2 came out at 6.23%.

`CS(=O)(=O)c1ccc(-n2nc(C(F)(F)F)nc2-c2ccc(C#N)cc2)cc1` [Example 37, 5-(4-cyanophenyl)-1-(4-methanesulfonylphenyl)-3-trifluoromethyl-1H-[1,2,4]triazole]: at COX-1, the inhibition at 1 µM was found to be 23.7%. Besides, the inhibition at 0.01 µM on COX-2 was 8.92%.

Take `CS(=O)(=O)c1ccc(-n2nc(C(F)(F)F)nc2-c2ccc([N+](=O)[O-])cc2Cl)cc1` [Example 38, 5-(4-nitro-2-chlorophenyl)-1-(4-methanesulfonylphenyl)-3-trifluoromethyl-1H-[1,2,4]triazole]: the inhibition at 1 µM on COX-1 was 19.5%. Also, on COX-2, the inhibition at 0.01 µM came to 5.95%.

Turning to `COc1ccc(-c2nc(C(F)(F)F)nn2-c2ccc(S(C)(=O)=O)cc2)cc1Cl` [Example 39, 5-(3-chloro-4-methoxyphenyl)-1-(4-methanesulfonylphenyl)-3-trifluoromethyl-1H-[1,2,4]triazole], at COX-1, the inhibition at 1 µM is 12.5% and the “COX-1 inhibitory activity in comparison with the reference (Valdecoxib)” value is reported as “the same as or lower”. Moreover, at COX-2, the “COX-2 inhibitory activity in comparison with the reference (Valdecoxib)” value was “remarkably enhanced”, the inhibition at 0.01 µM is 32.6% and the “selectivity (COX-2 over COX-1)” value is “excellent selectivities”.

In the case of `CS(=O)(=O)c1ccc(-n2nc(C(F)(F)F)nc2-c2ccc3c(c2)OCO3)cc1` [Example 40, 5-benzo[1,3]dioxol-5-yl-1-(4-methanesulfonylphenyl)-3-trifluoromethyl-1H-[1,2,4]triazole], on COX-1, the inhibition at 1 µM is 18.7% and the “COX-1 inhibitory activity in comparison with the reference (Valdecoxib)” value was “the same as or lower”. Further, on COX-2, the “COX-2 inhibitory activity in comparison with the reference (Valdecoxib)” value is “remarkably enhanced”, the inhibition at 0.01 µM amounted to 33.7% and the “selectivity (COX-2 over COX-1)” value is reported as “excellent selectivities”.

`CS(=O)(=O)c1ccc(-n2nc(C(F)(F)F)nc2-c2ccncc2)cc1` [Example 41, 4-[2-(4-methanesulfonylphenyl)-5-trifluoromethyl-2H-[1,2,4]triazol-3-yl]pyridine]: on COX-1, the inhibition at 1 µM amounted to 16.7%. Moreover, the inhibition at 0.01 µM on COX-2 came out at 8.88%.

`Cc1ccc(-c2nc(C(F)(F)F)nn2-c2ccc(S(N)(=O)=O)cc2)cc1` [Example 42, 4-(5-p-tolyl-3-trifluoromethyl-[1,2,4]triazol-1-yl)benzenesulfonamide]: the inhibition at 1 µM at COX-1 came out at 38%. Further, the inhibition at 0.01 µM on COX-2 amounted to 12.1%.

For `CS(=O)(=O)c1ccc(-n2nc(C(F)(F)F)nc2-c2ccc(Br)cc2)cn1` [Example 47, 2-methanesulfonyl-5-[5-(4-bromophenyl)-3-trifluoromethyl-[1,2,4]triazol-1-yl]pyridine], the inhibition at 1 µM on COX-1 turned out to be 21.9%. Also, the inhibition at 0.01 µM at COX-2 came out at 4.26%.

`COc1ccc(-c2nc(C(F)(F)F)nn2-c2ccc(S(C)(=O)=O)nc2)cc1` [Example 48, 2-methanesulfonyl-5-[5-(4-methoxyphenyl)-3-trifluoromethyl-[1,2,4]triazol-1-yl]pyridine]: the inhibition at 1 µM on COX-1 came to 28.8%. The inhibition at 0.01 µM at COX-2 was determined as 5.63%.

For `CS(=O)(=O)c1ccc(-n2nc(C(F)(F)F)nc2-c2ccc(Br)cc2)nn1` [Example 49, 3-[5-(4-bromophenyl)-3-trifluoromethyl-[1,2,4]triazol-1-yl]-6-methanesulfonyl pyridazine], on COX-1, the inhibition at 1 µM came to 14.6%. In addition, the inhibition at 0.01 µM at COX-2 is 3.21%.

`COc1ccc(-c2nc(C(F)(F)F)nn2-c2ccc(S(C)(=O)=O)nn2)cc1` [Example 50, 3-[5-(4-methoxyphenyl)-3-trifluoromethyl-[1.2.4]triazol-1-yl]-6-methanesulfonyl pyridazine]: on COX-1, the inhibition at 1 µM came out at 10.6%. For the same compound, the inhibition at 0.01 µM on COX-2 turned out to be 4.32%.

With `COc1ccc2c(c1)c(CC(=O)O)c(C)n2C(=O)c1ccc(Cl)cc1` [Indomethacine, reference compound], the “Inhibitory effect (% inhibition)” value in assay [1] stood at 40.1 % inhibition.
